Results taken from paper PMC7822874, “Chemoprotective antimalarials identified through quantitative high-throughput screening of Plasmodium blood and liver stage parasites” (Scientific Reports, 2021).
Where two headings read alike, the source gives them in different places.

Assays:
in vitro = conditions: human, HepG2-A16-CD81EGFP cells, uninfected
[1] = test system: P. berghei-ANKA-GFP-LucCON liver stage parasites in HepG2-A16-CD81EGFP cells; experiment: P. berghei liver stage Pb-Luc assay, Method 1 (UCSD, 1536-well); format: cell-based, Plasmodium berghei; conditions: Plasmodium berghei, 48 h, average of 2 wells on a 1536 well plate
[2] = test system: luciferase-expressing P. berghei liver stage parasites in HepG2 cells; experiment: Inhibition of liver-stage development assay (ILSDA), Method 2 (WRAIR, 96-well); format: cell-based, Plasmodium berghei; conditions: for Max Resp (signal direction of the dose response): Method 2, Decrease = decreasing P. berghei viability with dose, Increase = increasing signal, Inactive = no dose response; for AC50: Plasmodium berghei, HepG2, Method 2
[3] = test system: Plasmodium falciparum Dd2 asexual blood stage parasites; experiment: microbe, parasite or virus in culture; design: species or system Plasmodium falciparum Dd2 in human erythrocytes; single determination (one 11-point concentration-response curve); conditions: Plasmodium falciparum, DD2, Erythrocyte, 72 h; read-out: AC50
HepG2-A16-CD81EGFP cells = conditions: average of 2 wells
[4] = 1 uM (compounds provided at 10 mM), column 11, read-out: Pb-Luc (P. berghei liver stage), % of control, lower concentration, first repeat
[5] = 1 uM (compounds provided at 10 mM), column 12, read-out: Pb-Luc (P. berghei liver stage), % of control, lower concentration, second repeat
[6] = 3 uM (compounds provided at 10 mM), column 8, read-out: Pb-Luc (P. berghei liver stage), % of control, higher concentration, first repeat
[7] = 3 uM (compounds provided at 10 mM), column 9, read-out: Pb-Luc (P. berghei liver stage), % of control, higher concentration, second repeat
[8] = Hill fit, 50% of maximum activity response, read-out: AC50
[9] = log10 of molar AC50 from Hill fit, read-out: Log AC50 (converted)

Structure (SMILES) | viability at 48 h, 1 µM (in vitro) | viability at 48 h, 3 µM (in vitro) | activity at 1 µM [1, 4] | activity at 1 µM [1, 5] | activity at 3 µM [1, 6] | activity at 3 µM [1, 7] | Max Resp (signal direction of the dose response) [2] | AC50 [3] | AC50 [2, 8] | AC50 [2, 9] | activity at 1 µM ([1]; P. berghei liver stage, 1 µM compound treatment (10 mM stocks), replicate 1, normalized, read-out: PbLuc 1uM growth rep1) | activity at 1 µM ([1]; P. berghei liver stage, 1 µM compound treatment (10 mM stocks), replicate 2, normalized, read-out: PbLuc 1uM growth rep2) | activity at 3 µM ([1]; P. berghei liver stage, 3 µM compound treatment (10 mM stocks), replicate 1, normalized, read-out: PbLuc 3uM growth rep1) | activity at 3 µM ([1]; P. berghei liver stage, 3 µM compound treatment (10 mM stocks), replicate 2, normalized, read-out: PbLuc 3uM growth rep2) | HepG2 1uM growth rep1 (HepG2-A16-CD81EGFP cells; HepG2, 1 µM compound treatment (10 mM stocks), replicate 1, normalized) | HepG2 1uM growth rep2 (HepG2-A16-CD81EGFP cells; HepG2, 1 µM compound treatment (10 mM stocks), replicate 2, normalized) | HepG2 3uM growth rep1 (HepG2-A16-CD81EGFP cells; HepG2, 3 µM compound treatment (10 mM stocks), replicate 1, normalized) | HepG2 3uM growth rep2 (HepG2-A16-CD81EGFP cells; HepG2, 3 µM compound treatment (10 mM stocks), replicate 2, normalized)
Cc1ccc2c(c1)[nH]c1c(N3CCN(Cc4ccccc4)CC3)ncnc12 [MLS000041320-01] | 82% | 88% | 23% | 17% | 5.3% | 4% | Inactive | – | – | – | – | – | – | – | – | – | – | –
N=c1c2c(n(Cc3ccccc3)c3c1CCC3)CCC2 [MLS000080128-01] | 98% | 74% | – | – | – | – | Inactive | 4220 nM | – | – | – | – | – | – | – | – | – | –
CC(C)(C)C1CCc2[nH]c3ccccc3c(=O)c2C1 (stereo not shown) [MLS000109039-01] | 89% | 88% | – | – | – | – | Decrease | 1880 nM | 282 nM | 282 nM | – | – | – | – | – | – | – | –
Cc1cc(Nc2ccc(Br)c(C)c2)n2nc(C)nc2n1 [MLS000116638-01] | – | – | – | – | – | – | Decrease | 1330 nM | 794 nM | 794 nM | 32% | 25% | 9% | 12% | 91% | 87% | 86% | 89%
N=c1c2ccccc2nnn1-c1ccc(C(F)(F)F)cc1 [MLS000707013-01] | 91% | 101% | 23% | 19% | 12% | 10% | Decrease | 3760 nM | 708 nM | 708 nM | – | – | – | – | – | – | – | –
CCn1cc(C(=O)O)c(=O)c2cnc(N3CCN(/C(S)=N/c4ccccc4)CC3)nc21 [MLS000777921-01] | 113% | 102% | 25% | 24% | 3.25% | 2.6% | Decrease | 3760 nM | 2000 nM | 2000 nM | – | – | – | – | – | – | – | –
O=C(NC1CC1)c1ccc(CSCc2ccccc2Cl)o1 [MLS001030935-01] | 111% | 100% | 16% | 12% | 1% | 9% | Decrease | – | 200 nM | 200 nM | – | – | – | – | – | – | – | –
Cc1ccc(CSCc2ccc(C(=O)NC3CC3)o2)cc1 [MLS001031023-01] | 93% | 88% | – | – | – | – | Decrease | 2660 nM | 224 nM | 224 nM | – | – | – | – | – | – | – | –
